In patent publication US20250122219A1 (priority 2023, published 2025):

Experiments:
[1] = Cytotoxicity assay in MT-4 cells; type: cell-based; conditions: human; uninfected MT-4 cells, 5 days incubation, Cell Titer Glo; read-out: MT4 CC50
Procedure, shortened: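 Uninfected MT-4 cells exposed to serially diluted compounds in RPMI with 10% FBS for 5 days at 37 °C. Viability by Cell Titer Glo chemiluminescence. Puromycin […] as baseline cytotoxicity control.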

HIV-1 (IIIB) = experiment: Antiviral assay in MT-4 cells; type: cell-based; conditions: Human immunodeficiency virus 1, MT4, 120 h; HIV-1 IIIB in MT-4 cells, 5 days incubation, Cell Titer Glo; read-out: MT4 EC50
Procedure, shortened: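 HIV-1 IIIB-infected MT-4 cells (fresh 1:250 virus stock dilution; mock-infected controls) incubated 5 days at 37 °C with serially diluted compounds in RPMI/10% FBS; 5 μM AZT as positive control. Cell viability read by CellTiter-Glo luminescence as measure of protection from viral replication.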

Compound | EC50 (HIV-1 (IIIB)) | CC50 at 5 days [1]
CCCCCCCCOC(=O)OCOc1c2n(cc(C(=O)NCc3ccc(F)cc3F)c1=O)[C@@H]1CN(C2=O)[C@@H](C)CC[C@]12CC(OC)=NO2 [Example 185, (((3′S,5S,7′R)-10′-((2,4-difluorobenzyl)carbamoyl)-3-methoxy-3′-methyl-1′,11′-dioxo-1′,4′,5′,11′-tetrahydro-3′H,4H,7′H-spiro[isoxazole-5,6′-[2,7]methanopyrido[1,2-a][1,4]diazonin]-12′-yl)oxy)methyl octyl carbonate] | 0.00514 µM | ≥ 50 µM
CCCCCCCCCOC(=O)OCOc1c2n(cc(C(=O)NCc3ccc(F)cc3F)c1=O)[C@@H]1CN(C2=O)[C@@H](C)CC[C@]12CC(C)=NO2 [Example 186, (((3′S,5S,7′R)-10′-((2,4-difluorobenzyl)carbamoyl)-3,3′-dimethyl-1′,11′-dioxo-1′,4′,5′,11′-tetrahydro-3′H,4H,7′H-spiro[isoxazole-5,6′-[2,7]methanopyrido[1,2-a][1,4]diazonin]-12′-yl)oxy)methyl nonyl carbonate] | 0.00224 µM | ≥ 50 µM
CCCCCCCCCOC(=O)OCOc1c2n(cc(C(=O)NCc3ccc(F)cc3F)c1=O)[C@@H]1CN(C2=O)[C@@H](C)CC[C@]12CC(OC)=NO2 [Example 187, (((3′S,5S,7′R)-10′-((2,4-difluorobenzyl)carbamoyl)-3-methoxy-3′-methyl-1′,11′-dioxo-1′,4′,5′,11′-tetrahydro-3′H,4H,7′H-spiro[isoxazole-5,6′-[2,7]methanopyrido[1,2-a][1,4]diazonin]-12′-yl)oxy)methyl nonyl carbonate] | 0.00325 µM | 43.9 µM
CCCCCCCCCCOC(=O)OCOc1c2n(cc(C(=O)NCc3ccc(F)cc3F)c1=O)[C@@H]1CN(C2=O)[C@@H](C)CC[C@]12CC(OC)=NO2 [Example 189, decyl ((((3′S,5S,7′R)-10′-((2,4-difluorobenzyl)carbamoyl)-3-methoxy-3′-methyl-1′,11′-dioxo-1′,4′,5′,11′-tetrahydro-3′H,4H,7′H-spiro[isoxazole-5,6′-[2,7]methanopyrido[1,2-a][1,4]diazonin]-12′-yl)oxy)methyl) carbonate] | 0.00354 µM | ≥ 50 µM
CCCCCCCCCCCCCCCCOC(=O)OCOc1c2n(cc(C(=O)NCc3ccc(F)cc3F)c1=O)[C@@H]1CN(C2=O)[C@@H](C)CC[C@]12CC(C)=NO2 [Example 194, (((3′S,5S,7′R)-10′-((2,4-difluorobenzyl)carbamoyl)-3,3′-dimethyl-1′,11′-dioxo-1′,4′,5′,11′-tetrahydro-3′H,4H,7′H-spiro[isoxazole-5,6′-[2,7]methanopyrido[1,2-a][1,4]diazonin]-12′-yl)oxy)methyl hexadecyl carbonate] | 0.0167 µM | ≥ 50 µM
CCCCCCCCCCCCCCCCOC(=O)OCOc1c2n(cc(C(=O)NCc3ccc(F)cc3F)c1=O)[C@@H]1CN(C2=O)[C@@H](C)CC[C@]12CC(OC)=NO2 [Example 195, (((3′S,5S,7′R)-10′-((2,4-difluorobenzyl)carbamoyl)-3-methoxy-3′-methyl-1′,11′-dioxo-1′,4′˜5′,11′-tetrahydro-3′H,4H,7′H-spiro[isoxazole-5,6′-[2,7]methanopyrido[1,2-a][1,4]diazonin]-12′-yl)oxy)methyl hexadecyl carbonate] | 0.0335 µM | ≥ 50 µM
CCCCCCCCCCCCCCCCCCOC(=O)OCOc1c2n(cc(C(=O)NCc3ccc(F)cc3F)c1=O)[C@@H]1CN(C2=O)[C@@H](C)CC[C@]12CC(C)=NO2 [Example 196, (((3′S,5S,7′R)-10′-((2,4-difluorobenzyl)carbamoyl)-3,3′-dimethyl-1′,11′-dioxo-1′,4′,5′,11′-tetrahydro-3′H,4H,7′H-spiro[isoxazole-5,6′-[2,7]methanopyrido[1,2-a][1,4]diazonin]-12′-yl)oxy)methyl octadecyl carbonate] | 0.0184 µM | ≥ 50 µM
CCCCCCCCCCCCCCCCCCOC(=O)OCOc1c2n(cc(C(=O)NCc3ccc(F)cc3F)c1=O)[C@@H]1CN(C2=O)[C@@H](C)CC[C@]12CC(OC)=NO2 [Example 197, (((3′S,5S,7′R)-10′-((2,4-difluorobenzyl)carbamoyl)-3-methoxy-3′-methyl-1′,11′-dioxo-1′,4′,5′,11′-tetrahydro-3′H,4H,7′H-spiro[isoxazole-5,6′-[2,7]methanopyrido[1,2-a][1,4]diazonin]-12′-yl)oxy)methyl octadecyl carbonate] | 0.0412 µM | ≥ 50 µM
COC1=NO[C@@]2(CC[C@H](C)N3C[C@H]2n2cc(C(=O)NCc4ccc(F)cc4F)c(=O)c(OCOC(=O)OC(C)C)c2C3=O)C1 [Example 198, (((3′S,5S,7′R)-10′-((2,4-difluorobenzyl)carbamoyl)-3-methoxy-3′-methyl-1′,11′-dioxo-1′,4′,5′,11′-tetrahydro-3′H,4H,7′H-spiro[isoxazole-5,6′-[2,7]methanopyrido[1,2-a][1,4]diazonin]-12′-yl)oxy)methyl isopropyl carbonate] | 0.00629 µM | ≥ 50 µM
CC1=NO[C@@]2(CC[C@H](C)N3C[C@H]2n2cc(C(=O)NCc4ccc(F)cc4F)c(=O)c(OCOC(=O)OCC(C)C)c2C3=O)C1 [Example 199, (((3′S,5S,7′R)-10′-((2,4-difluorobenzyl)carbamoyl)-3,3′-dimethyl-1′,11′-dioxo-1′,4′,5′,11′-tetrahydro-3′H,4H,7′H-spiro[isoxazole-5,6′-[2,7]methanopyrido[1,2-a][1,4]diazonin]-12′-yl)oxy)methyl isobutyl carbonate] | 0.00387 µM | 15.5 µM
COC1=NO[C@@]2(CC[C@H](C)N3C[C@H]2n2cc(C(=O)NCc4ccc(F)cc4F)c(=O)c(OCOC(=O)OCC(C)C)c2C3=O)C1 [Example 200, (((3′S,5S,7′R)-10′-((2,4-difluorobenzyl)carbamoyl)-3-methoxy-3′-methyl-1′,11′-dioxo-1′,4′,5′,11′-tetrahydro-3′H,4H,7′H-spiro[isoxazole-5,6′-[2,7]methanopyrido[1,2-a][1,4]diazonin]-12′-yl)oxy)methyl isobutyl carbonate] | 0.0019 µM | 15.2 µM

These reach a lower EC50 (HIV-1 (IIIB)). Values come first.

EC50 (HIV-1 (IIIB)) | Compound | CC50 at 5 days [1]
0.00029 µM | CCCCCCOC(=O)OCOc1c2n(cc(C(=O)NCc3ccc(F)cc3F)c1=O)[C@@H]1CN(C2=O)[C@@H](C)CC[C@]12CC(OC)=NO2 [Example 182, (((3′S,5S,7′R)-10′-((2,4-difluorobenzyl)carbamoyl)-3-methoxy-3′-methyl-1′,11′-dioxo-1′,4′,5′,11′-tetrahydro-3′H,4H,7′H-spiro[isoxazole-5,6′-[2,7]methanopyrido[1,2-a][1,4]diazonin]-12′-yl)oxy)methyl hexyl carbonate] | 47.9 µM
0.000358 µM | CCCCCCCOC(=O)OCOc1c2n(cc(C(=O)NCc3ccc(F)cc3F)c1=O)[C@@H]1CN(C2=O)[C@@H](C)CC[C@]12CC(C)=NO2 [Example 183, (((3′S,5S,7′R)-10′-((2,4-difluorobenzyl)carbamoyl)-3,3′-dimethyl-1′,11′-dioxo-1′,4′,5′,11′-tetrahydro-3′H,4H,7′H-spiro[isoxazole-5,6′-[2,7]methanopyrido[1,2-a][1,4]diazonin]-12′-yl)oxy)methyl heptyl carbonate] | 11.4 µM
0.000441 µM | CCCCCCCOC(=O)OCOc1c2n(cc(C(=O)NCc3ccc(F)cc3F)c1=O)[C@@H]1CN(C2=O)[C@@H](C)CC[C@]12CC(OC)=NO2 [Example 184, (((3′S,5S,7′R)-10′-((2,4-difluorobenzyl)carbamoyl)-3-methoxy-3′-methyl-1′,11′-dioxo-1′,4′,5′,11′-tetrahydro-3′H,4H,7′H-spiro[isoxazole-5,6′-[2,7]methanopyrido[1,2-a][1,4]diazonin]-12′-yl)oxy)methyl heptyl carbonate] | 9.98 µM
0.00155 µM | CCCCCCCCCCOC(=O)OCOc1c2n(cc(C(=O)NCc3ccc(F)cc3F)c1=O)[C@@H]1CN(C2=O)[C@@H](C)CC[C@]12CC(C)=NO2 [Example 188, decyl ((((3′S,5S,7′R)-10′-((2,4-difluorobenzyl)carbamoyl)-3,3′-dimethyl-1′,11′-dioxo-1′,4′,5′,11′-tetrahydro-3′H,4H,7′H-spiro[isoxazole-5,6′-[2,7]methanopyrido[1,2-a][1,4]diazonin]-12′-yl)oxy)methyl) carbonate] | 38.5 µM
0.000495 µM | CCCCCCCCCCCCOC(=O)OCOc1c2n(cc(C(=O)NCc3ccc(F)cc3F)c1=O)[C@@H]1CN(C2=O)[C@@H](C)CC[C@]12CC(C)=NO2 [Example 190, (((3′S,5S,7′R)-10′-((2,4-difluorobenzyl)carbamoyl)-3,3′-dimethyl-1′,11′-dioxo-1′,4′,5′,11′-tetrahydro-3′H,4H,7′H-spiro[isoxazole-5,6′-[2,7]methanopyrido[1,2-a][1,4]diazonin]-12′-yl)oxy)methyl dodecyl carbonate] | ≥ 50 µM
0.00167 µM | CCCCCCCCCCCCOC(=O)OCOc1c2n(cc(C(=O)NCc3ccc(F)cc3F)c1=O)[C@@H]1CN(C2=O)[C@@H](C)CC[C@]12CC(OC)=NO2 [Example 191, (((3′S,5S,7′R)-10′-((2,4-difluorobenzyl)carbamoyl)-3-methoxy-3′-methyl-1′,11′-dioxo-1′,4′,5′,11′-tetrahydro-3′H,4H,7′H-spiro[isoxazole-5,6′-[2,7]methanopyrido[1,2-a][1,4]diazonin]-12′-yl)oxy)methyl dodecyl carbonate] | ≥ 50 µM
